Experimental findings from patent US10730863B2, “Bridged bicyclic compounds as farnesoid X receptor modulators” (BRISTOL-MYERS SQUIBB COMPANY, priority 2017, dated 2020) are described below.

As a reminder, the EC50 is the concentration needed to bring the measured effect to its halfway point.

The target in this assay is FXR (Homo sapiens (Human), UniProt Q96RI1). Briefly: FXR EC50 (FXR agonist activity reported with each example). It counts as cell-based.
FXR, sequence (Q96RI1 262-486): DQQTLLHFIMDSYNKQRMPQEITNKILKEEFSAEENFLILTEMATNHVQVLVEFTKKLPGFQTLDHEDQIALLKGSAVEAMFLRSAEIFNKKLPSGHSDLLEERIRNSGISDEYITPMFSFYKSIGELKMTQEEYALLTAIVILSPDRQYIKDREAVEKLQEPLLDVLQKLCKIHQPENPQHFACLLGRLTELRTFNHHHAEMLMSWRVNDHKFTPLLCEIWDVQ
`O=C(O)c1cc(F)cc2nc(OCC34CCC(OCc5c(-c6c(Cl)cncc6Cl)noc5C5CC5)(CC3)CC4)sc12` [Example 463, 2-((4-((5-cyclopropyl-3-(3,5-dichloropyridin-4-yl)isoxazol-4-yl)methoxy)bicyclo[2.2.2]octan-1-yl)methoxy)-5-fluorobenzo[d]thiazole-7-carboxylic acid]: the EC50 was 41 nM.

`O=C(O)c1cc(C(F)(F)F)c2cc(CCC34CCC(OCc5c(-c6c(Cl)cncc6Cl)noc5C5CC5)(CC3)CC4)ccc2n1` [Example 430, 6-(2-(4-((5-cyclopropyl-3-(3,5-dichloropyridin-4-yl)isoxazol-4-yl)methoxy)bicyclo[2.2.2]octan-1-yl)ethyl)-4-(trifluoromethyl)quinoline-2-carboxylic acid] yielded an EC50 of 24 nM.

The compound `O=C(O)c1ccc(-c2noc(C34CCC(OCc5c(-c6ccccc6C(F)(F)F)noc5C5CC5)(CC3)CC4)n2)cn1` [Example 46] registered a concentration giving a half-maximal response (EC50) of 2700 nM.

`O=C(O)C1CC1c1noc(C23CCC(OCc4c(-c5c(Cl)cncc5Cl)noc4C4CC4)(CC2)CC3)n1` (centres unmarked) [Example 270, 2-(5-(4-((5-cyclopropyl-3-(3,5-dichloropyridin-4-yl)isoxazol-4-yl)methoxy)bicyclo[2.2.2]octan-1-yl)-1,2,4-oxadiazol-3-yl)cyclopropane-1-carboxylic acid] yielded a half-maximal effective concentration (EC50) of 1500 nM.

In turn, `Cc1ccc(C(=O)O)c2ccc(C34CCC(OCc5c(-c6c(Cl)cncc6Cl)noc5C5CC5)(CC3)CC4)nc12` [Example 389] displayed a concentration giving a half-maximal response (EC50) of 6 nM.

The compound `O=C(O)c1ccc2cc(CCC34CCC(OCc5c(-c6c(Cl)cncc6Cl)noc5C5CC5)(CC3)CC4)ccc2n1` [Example 515, 6-(2-(4-((5-cyclopropyl-3-(3,5-dichloropyridin-4-yl)isoxazol-4-yl)methoxy)bicyclo[2.2.2]octan-1-yl)ethyl)quinoline-2-carboxylicacid] registered an EC50 of 87 nM.

For the compound `O=C(O)c1ccc2nc(C34CCC(OCc5c(-c6c(Cl)cccc6Cl)noc5C5CC5)(CC3)CC4)ccc2c1` [Example 134, 2-(4-((5-cyclopropyl-3-(2,6-dichlorophenyl)isoxazol-4-yl)methoxy)bicyclo[2.2.2]octan-1-yl)quinoline-6-carboxylic acid], the EC50 is 83 nM.

`O=C(O)c1cnc(N2CC(F)C2)c(C#CC23CCC(OCc4c(-c5c(Cl)cncc5Cl)noc4C4CC4)(CC2)CC3)c1` [Example 523, 5-((4-((5-cyclopropyl-3-(3,5-dichloropyridin-4-yl)isoxazol-4-yl)methoxy)bicyclo[2.2.2]octan-1-yl)ethynyl)-6-(3-fluoroazetidin-1-yl)nicotinic acid] returned an EC50 of 24 nM.

In turn, `O=C(O)c1ccnc(-c2noc(C34CCC(OCc5c(-c6c(Cl)cccc6Cl)noc5C5CC5)(CC3)CC4)n2)c1` [Example 10, 2-(5-(4-((5-cyclopropyl-3-(2,6-dichlorophenyl)isoxazol-4-yl)methoxy)bicyclo[2.2.2]octan-1-yl)-1,2,4-oxadiazol-3-yl)isonicotinic acid] showed an EC50 of 2700 nM.

`O=C(O)c1c(F)ccc(-c2noc(C34CCC(OCc5c(-c6c(Cl)cncc6Cl)noc5C5CC5)(CC3)CC4)n2)c1F` [Example 248, 3-(5-(4-((5-cyclopropyl-3-(3,5-dichloropyridin-4-yl)isoxazol-4-yl)methoxy)bicyclo[2.2.2]octan-1-yl)-1,2,4-oxadiazol-3-yl)-2,6-difluorobenzoic acid]: the EC50 amounted to 1100 nM.

Compound `O=C(O)c1cccc(-c2nc(C34CCC(OCc5c(-c6ccccc6C(F)(F)F)noc5C5CC5)(CC3)CC4)no2)c1` [Example 20, 3-(3-(4-((5-cyclopropyl-3-(2-(trifluoromethyl)phenyl)isoxazol-4-yl)methoxy)bicyclo[2.2.2]octan-1-yl)-1,2,4-oxadiazol-5-yl)benzoic acid] yielded an EC50 of 510 nM.

`O=C(O)c1cc(-c2noc(C34CCC(/C=C/c5c(-c6c(Cl)cncc6Cl)noc5C5CC5)(CC3)CC4)n2)cc(C(F)(F)F)c1` [Example 436, (E)-3-(5-(4-(2-(5-cyclopropyl-3-(3,5-dichloropyridin-4-yl)isoxazol-4-yl)vinyl)bicyclo[2.2.2]octan-1-yl)-1,2,4-oxadiazol-3-yl)-5-(trifluoromethyl)benzoic acid] registered a concentration for a half-maximal effect (EC50) of 18 nM.

In turn, `O=C(O)c1csc(C23CCC(/C=C/c4c(-c5c(Cl)cncc5Cl)noc4C4CC4)(CC2)CC3)n1` [Example 510, (E)-2-(4-(2-(5-cyclopropyl-3-(3,5-dichloropyridin-4-yl)isoxazol-4-yl)vinyl)bicyclo[2.2.2]octan-1-yl)thiazole-4-carboxylic acid] returned an EC50 of 410 nM.

Turning to `O=C(O)c1ccc(-c2noc(C34CCC(OCc5c(-c6c(Cl)cncc6Cl)noc5C5CC5)(CC3)CO4)n2)cc1` [Example 218], the EC50 was 160 nM.

The compound `O=C(O)c1cc(C(F)(F)F)c2ccc(C34CCC(OCc5c(-c6c(Cl)cncc6Cl)noc5C5CC5)(CC3)CC4)nc2c1` [Example 422] showed a 50% effective concentration (EC50) of 360 nM.

`O=C(O)c1ncc(OCC23CCC(OCc4c(-c5c(Cl)cncc5Cl)noc4C4CC4)(CC2)CC3)c2ccccc12` [Example 292, 4-((4-((5-cyclopropyl-3-(3,5-dichloropyridin-4-yl)isoxazol-4-yl)methoxy)bicyclo[2.2.2]octan-1-yl)methoxy)isoquinoline-1-carboxylic acid] had an EC50 of 9 nM.

In turn, `O=C(O)c1cc(-c2noc(C34CCC(COCc5c(-c6c(Cl)cncc6Cl)noc5C5CC5)(CC3)CC4)n2)cc(C(F)(F)F)c1` [Example 485, 3-(5-(4-(((5-cyclopropyl-3-(3,5-dichloropyridin-4-yl)isoxazol-4-yl)methoxy)methyl)bicyclo[2.2.2]octan-1-yl)-1,2,4-oxadiazol-3-yl)-5-(trifluoromethyl)benzoic acid] registered a concentration for a half-maximal effect (EC50) of 380 nM.

`O=C(O)c1cc(OCC23CCC(/C=C/c4c(-c5c(Cl)cncc5Cl)noc4C4CC4)(CC2)CC3)cc(C(F)(F)F)c1` [Example 506, (E)-3-((4-(2-(5-cyclopropyl-3-(3,5-dichloropyridin-4-yl)isoxazol-4-yl)vinyl)bicyclo[2.2.2]octan-1-yl)methoxy)-5-(trifluoromethyl)benzoic acid] registered a concentration giving a half-maximal response (EC50) of 6 nM.

`O=C(O)c1ccc(OCC23CCC(OCc4c(-c5c(Cl)cncc5Cl)noc4C4CC4)(CC2)CC3)cn1` [Example 319] gave an EC50 of 270 nM.

On to `CC(C)Oc1cc(C(=O)O)cc(-c2noc(C34CCC(OCc5c(-c6c(Cl)cncc6Cl)noc5C5CC5)(CC3)CC4)n2)c1` [Example 251, 3-(5-(4-((5-cyclopropyl-3-(3,5-dichloropyridin-4-yl)isoxazol-4-yl)methoxy)bicyclo[2.2.2]octan-1-yl)-1,2,4-oxadiazol-3-yl)-5-isopropoxybenzoic acid], for which the midpoint of the response, the EC50, lay at 16 nM.

As to `Cc1cc(OCC23CCC(OCc4c(-c5c(Cl)cncc5Cl)noc4C4CC4)(CC2)CC3)cc(C(=O)O)c1` [Example 322], the half-maximal effective concentration (EC50) worked out at 7 nM.

`CN1CCN(c2ccc(C(=O)O)c3ccc(C45CCC(OCc6c(-c7c(Cl)cncc7Cl)noc6C6CC6)(CC4)CC5)nc23)CC1` [Example 413]: the EC50 worked out at 1500 nM.

For the compound `O=C(O)c1ccc(OCC23CCC(OCc4c(-c5c(Cl)cncc5Cl)noc4C4CC4)(CC2)CC3)c(F)c1` [Example 276, 4-((4-((5-cyclopropyl-3-(3,5-dichloropyridin-4-yl)isoxazol-4-yl)methoxy)bicyclo[2.2.2]octan-1-yl)methoxy)-3-fluorobenzoic acid], a half-maximal response (EC50) required 170 nM.

The compound `O=C(O)c1ccc2nc(C34CCC(/C=C/c5c(-c6c(Cl)cncc6Cl)noc5C5CC5)(CC3)CC4)sc2c1` [Example 505, (E)-2-(4-(2-(5-cyclopropyl-3-(3,5-dichloropyridin-4-yl)isoxazol-4-yl)vinyl)bicyclo[2.2.2]octan-1-yl)benzo[d]thiazole-6-carboxylic acid] had a half-maximal effective concentration (EC50) of 88 nM.

`COc1ccc(-c2nc(C34CCC(OCc5c(-c6c(Cl)cncc6Cl)noc5C5CC5)(CC3)CC4)no2)cc1C(=O)O` [Example 234, 5-(3-(4-((5-cyclopropyl-3-(3,5-dichloropyridin-4-yl)isoxazol-4-yl)methoxy)bicyclo[2.2.2]octan-1-yl)-1,2,4-oxadiazol-5-yl)-2-methoxybenzoic acid] came in with an EC50 of 190 nM.

Turning to `O=C(O)c1cc(OCC23CCC(OCc4c(-c5c(Cl)cccc5Cl)noc4C4CC4)(CC2)CC3)ccc1F` [Example 93, 5-((4-((5-cyclopropyl-3-(2,6-dichlorophenyl)isoxazol-4-yl)methoxy)bicyclo[2.2.2]octan-1-yl)methoxy)-2-fluorobenzoic acid], the 50% effective concentration (EC50) came out at 32 nM.

On to `O=C(O)c1ccc(N2CCOCC2)c2nc(C34CCC(OCc5c(-c6c(Cl)cncc6Cl)noc5C5CC5)(CC3)CC4)ccc12` [Example 410, 2-(4-((5-cyclopropyl-3-(3,5-dichloropyridin-4-yl)isoxazol-4-yl)methoxy)bicyclo[2.2.2]octan-1-yl)-8-morpholinoquinoline-5-carboxylic acid], for which a half-maximal response (EC50) required 36 nM.

In the case of `O=C(O)c1cc(C(F)(F)F)cc(OCC23CCC(OCc4c(-c5c(Cl)cncc5Cl)noc4C4CC4)(CC2)CC3)n1` [Example 280, 6-((4-((5-cyclopropyl-3-(3,5-dichloropyridin-4-yl)isoxazol-4-yl)methoxy)bicyclo[2.2.2]octan-1-yl)methoxy)-4-(trifluoromethyl)picolinic acid], the 50% effective concentration (EC50) is 23 nM.

With `NC(=O)c1ccc(C23CCC(CNc4c(-c5c(Cl)cccc5Cl)noc4C4CC4)(CC2)CO3)cc1` [Example 208, 4-(4-(((5-cyclopropyl-3-(2,6-dichlorophenyl)isoxazol-4-yl)amino)methyl)-2-oxabicyclo[2.2.2]octan-1-yl)benzamide], the concentration for a half-maximal effect (EC50) turned out to be 710 nM.

`O=C(O)c1ccc(C#CC23CCC(OCc4c(-c5c(Cl)cncc5Cl)noc4C4CC4)(CC2)CC3)c2ncccc12` [Example 412] registered an EC50 of 10 nM.

Turning to `COc1ccc(C(=O)O)c2ccc(C34CCC(OCc5c(-c6c(Cl)cncc6Cl)noc5C5CC5)(CC3)CC4)nc12` [Example 371], the EC50 turned out to be 18 nM.

The compound `COc1c(C#CC23CCC(OCc4c(-c5c(Cl)cncc5Cl)noc4C4CC4)(CC2)CC3)cccc1C(=O)O` [Example 381] gave an EC50 of 220 nM.
